From US20060009357A1, “Azo dye, ink jet recording ink, heat sensitive recording material, color toner, color filter, ink jet recording method, ink cartridge and ink jet printer” (FUJI PHOTO FILM CO., LTD., priority 2004, published 2006)

Legend:
[1] = Light fastness of recorded image (xenon light, weatherometer); format: physicochemical; design: key: An image having a dye retention of 80% or higher at every measuring point was graded A; An image having a dye retention lower than 80% at one or two out of three points was graded B; An image having a dye retention lower than 80% at every point was graded C; details: dye retention after xenon light 85,000 lux for 7 days; initial densities 1, 1.5, 2.0; Super Photo Grade paper
Experimental: An image was recorded on photo glossy paper (Super Photo Grade, available from Fuji Photo Film Co., Ltd.) on ink jet printer (PM-770C, available from Seiko Epson Corp.) by using each of ink liquids A to I. The resulting image was evaluated for hue, light fastness, and ozone resistance as follows.
As to light fastness, the image density immediately after recording (initial density: Ci) was measured with a reflection densitometer X-Rite 310TR. After the image was exposed to xenon light (85,000 lux) for 7 days in a weatherometer (Atlas C.65, from Atlas Electric Devices Co.), the image density (Cf) was measured again at three points whose initial densities were 1, 1.5, and 2.0. A dye retention (%) was calculated from equation: Dye retention (%)=[…]
An image having a dye retention of 80% or higher at every measuring point was graded A. An image having a dye retention lower than 80% at one or two out of three points was graded B. An image having a dye retention lower than 80% at every point was graded C.

[2] = Ozone resistance of recorded image (ozone gas chamber); format: physicochemical; details: dye retention after ozone gas 5 ppm for 24 hours; three density points; Super Photo Grade paper
Experimental: An image was recorded on photo glossy paper (Super Photo Grade, available from Fuji Photo Film Co., Ltd.) on ink jet printer (PM-770C, available from Seiko Epson Corp.) by using each of ink liquids A to I. The resulting image was evaluated for hue, light fastness, and ozone resistance as follows. As to ozone resistance, the recorded image was left to stand in a chamber having an ozone gas concentration of 5 ppm for 24 hours. A dye retention after exposure to ozone was obtained in the same manner as for evaluation of light fastness. The ozone concentration in the chamber was set with an ozone gas monitor (OZG-EM-01, available from […] Co., Ltd.). An image having a dye retention of 70% or higher at every measuring point was graded A. An image having a dye retention lower than 70% at one or two out of three points was graded B. An image having a dye retention lower than 70% at every point was graded C.

| SMILES | Light Fastness [1] | Ozone fastness [2] |
| --- | --- | --- |
| Cn1c(=O)cc2c3c(c(Nc4ccc(Nc5nc(O)nc(Nc6cc(S(=O)(=O)[O-])ccc6S(=O)(=O)O)n5)cc4S(=O)(=O)O)ccc31)C(=O)c1ccccc1-2.[Na+] [h-2] | B | C (An image having a dye retention lower than 70% at every point was graded C) |
| O=C(O)c1ccccc1/N=N/c1c(S(=O)(=O)O)cc2cc(S(=O)(=O)[O-])cc(Nc3nc(O)nc(Nc4ccccc4C(=O)O)n3)c2c1O.[Na+] [h-3] | C (An image having a dye retention lower than 80% at every point was graded C) | C (An image having a dye retention lower than 70% at every point was graded C) |
